ChEMBL document CHEMBL4028834, “Stereoselective synthesis of enantiopure N-substituted pyrrolidin-2,5-dione derivatives by 1,3-dipolar cycloaddition and assessment of their in vitro antioxidant and antibacterial activities” (Bioorg Med Chem Lett, 2017)
Values after ≈ are worked out from the molar mass of the structure shown. Active and inactive are the calls of the source. No cut-off for these calls is given here.

How the values were obtained:
[1] = Antioxidant activity assessed as ABTS radical scavenging activity at 2.5 mg/ml incubated for 2 hrs in dark by spectrophotometric analysis (reference value: 1 to 9%); format: functional
[2] = Antioxidant activity assessed as ABTS radical scavenging activity at 2 mg/ml incubated for 2 hrs in dark by spectrophotometric analysis (reference value: 1 to 9%); format: functional
[3] = Antioxidant activity assessed as ABTS radical scavenging activity at 3 mg/ml incubated for 2 hrs in dark by spectrophotometric analysis (reference value: 1 to 9%); format: functional
[4] = Antioxidant activity assessed as ABTS radical scavenging activity at 0.5 mg/ml incubated for 2 hrs in dark by spectrophotometric analysis (reference value: 1 to 9 %); format: functional
[5] = Antioxidant activity assessed as ABTS radical scavenging activity incubated for 2 hrs in dark by spectrophotometric analysis; format: functional
[6] = Antioxidant activity assessed as ABTS radical scavenging activity at 1 mg/ml incubated for 2 hrs in dark by spectrophotometric analysis (reference value: 1 to 9%); format: functional
[7] = Antioxidant activity assessed as DPPH free radical scavenging activity at 0.5 mg/ml incubated for 20 mins in dark (reference value: 1 to 9 %); format: functional
[8] = Antioxidant activity assessed as reduction in beta-carotene/linoleic acid bleaching activity at 3 mg/ml after 2 hrs by spectrophotometric method (reference value: 1 to 8%); format: functional; design: scale not given: the % may be the effect or the level left
[9] = Antioxidant activity assessed as DPPH free radical scavenging activity at 2 mg/ml incubated for 20 mins in dark (reference value: 1 to 9%); format: functional
[10] = Antioxidant activity assessed as reduction in beta-carotene/linoleic acid bleaching activity at 0.5 mg/ml after 2 hrs by spectrophotometric method (reference value: 1 to 8 %); format: functional; design: scale not given: the % may be the effect or the level left
[11] = Antioxidant activity assessed as reduction in beta-carotene/linoleic acid bleaching activity at 2.5 mg/ml after 2 hrs by spectrophotometric method (reference value: 1 to 8%); format: functional; design: scale not given: the % may be the effect or the level left
[12] = Antioxidant activity assessed as DPPH free radical scavenging activity incubated for 20 mins in dark; format: functional
[13] = Antioxidant activity assessed as DPPH free radical scavenging activity at 1 mg/ml incubated for 20 mins in dark (reference value: 1 to 9%); format: functional
[14] = Antioxidant activity assessed as reduction in beta-carotene/linoleic acid bleaching activity after 2 hrs by spectrophotometric method; format: functional
[15] = Antioxidant activity assessed as DPPH free radical scavenging activity at 2.5 mg/ml incubated for 20 mins in dark (reference value: 1 to 9%); format: functional
[16] = Antioxidant activity assessed as reduction in beta-carotene/linoleic acid bleaching activity at 2 mg/ml after 2 hrs by spectrophotometric method (reference value: 1 to 8%); format: functional; design: scale not given: the % may be the effect or the level left
[17] = Antioxidant activity assessed as reduction in beta-carotene/linoleic acid bleaching activity at 1 mg/ml after 2 hrs by spectrophotometric method (reference value: 1 to 8%); format: functional; design: scale not given: the % may be the effect or the level left
[18] = Antioxidant activity assessed as DPPH free radical scavenging activity at 3 mg/ml incubated for 20 mins in dark (reference value: 1 to 9%); format: functional
[19] = tested on: Bacillus subtilis; assay: Antibacterial activity against Bacillus subtilis JN934392 after 24 hrs by MTT dye based microdilution method; format: functional; settings: JN934392, 24 h
[20] = tested on: Staphylococcus aureus; assay: Antibacterial activity against Staphylococcus aureus ATCC 6538 assessed as diameter of inhibition zone at 125 mg/ml by agar well diffusion method; format: functional; settings: read-out: DIZ
[21] = tested on: Salmonella enteritidis; assay: Antibacterial activity against Salmonella enterica serotype Enteritidis ATCC 43972 assessed as diameter of inhibition zone at 125 mg/ml by agar well diffusion method; format: functional, Salmonella enterica subsp. enterica serovar Enteritidis; settings: read-out: DIZ
[22] = tested on: Salmonella enteritidis; assay: Bactericidal activity against Salmonella enterica serotype Enteritidis ATCC 43972 after 48 hrs by MTT dye based microdilution method; format: functional, Salmonella enterica subsp. enterica serovar Enteritidis; settings: ATCC 43972, 48 h
[23] = tested on: Bacillus subtilis; assay: Antibacterial activity against Bacillus subtilis JN934392 assessed as diameter of inhibition zone at 125 mg/ml by agar well diffusion method; format: functional; settings: read-out: DIZ
[24] = tested on: Escherichia coli; assay: Antibacterial activity against Escherichia coli ATCC 25922 assessed as diameter of inhibition zone at 125 mg/ml by agar well diffusion method; format: functional
[25] = tested on: Staphylococcus aureus; assay: Antibacterial activity against Staphylococcus aureus ATCC 6538 after 24 hrs by MTT dye based microdilution method; format: functional; settings: ATCC 6538, 24 h
[26] = tested on: Listeria monocytogenes; assay: Antibacterial activity against Listeria monocytogenes assessed as diameter of inhibition zone at 125 mg/ml by agar well diffusion method; format: functional; settings: read-out: DIZ
[27] = tested on: Micrococcus luteus; assay: Antibacterial activity against Micrococcus luteus assessed as diameter of inhibition zone at 125 mg/ml by agar well diffusion method; format: functional; settings: read-out: DIZ
[28] = tested on: Bacillus cereus; assay: Antibacterial activity against Bacillus cereus JN934390 assessed as diameter of inhibition zone at 125 mg/ml by agar well diffusion method; format: functional; settings: read-out: DIZ
[29] = tested on: Bacillus cereus; assay: Bactericidal activity against Bacillus cereus JN934390 after 48 hrs by MTT dye based microdilution method; format: functional; settings: JN934390, 48 h
[30] = tested on: Klebsiella pneumoniae; assay: Antibacterial activity against Klebsiella pneumoniae after 24 hrs by MTT dye based microdilution method; format: functional
[31] = tested on: Staphylococcus aureus; assay: Bactericidal activity against Staphylococcus aureus ATCC 6538 after 48 hrs by MTT dye based microdilution method; format: functional; settings: ATCC 6538, 48 h
[32] = tested on: Bacillus subtilis; assay: Bactericidal activity against Bacillus subtilis JN934392 after 48 hrs by MTT dye based microdilution method; format: functional; settings: JN934392, 48 h
[33] = tested on: Micrococcus luteus; assay: Antibacterial activity against Micrococcus luteus after 24 hrs by MTT dye based microdilution method; format: functional
[34] = tested on: Salmonella enteritidis; assay: Antibacterial activity against Salmonella enterica serotype Enteritidis ATCC 43972 after 24 hrs by MTT dye based microdilution method; format: functional, Salmonella enterica subsp. enterica serovar Enteritidis; settings: ATCC 43972, 24 h
[35] = tested on: Klebsiella pneumoniae; assay: Antibacterial activity against Klebsiella pneumoniae assessed as diameter of inhibition zone at 125 mg/ml by agar well diffusion method; format: functional; settings: read-out: DIZ
[36] = tested on: Bacillus cereus; assay: Antibacterial activity against Bacillus cereus JN934390 after 24 hrs by MTT dye based microdilution method; format: functional; settings: JN934390, 24 h
[37] = tested on: Listeria monocytogenes; assay: Antibacterial activity against Listeria monocytogenes after 24 hrs by MTT dye based microdilution method; format: functional

Row | IC50 [5] [µg/mL] | IC50 [12] [µg/mL] | IC50 [14] [µg/mL] | Structure (SMILES) | Activity [1] [%] | Activity [2] [%] | Activity [3] [%] | Activity [4] [%] | Activity [6] [%] | Activity [7] [%] | Activity [8] [%] | Activity [9] [%] | Activity [10] [%] | Activity [11] [%] | Activity [12] | Activity [13] [%] | Activity [15] [%] | Activity [16] [%] | Activity [17] [%] | Activity [18] [%] | also measured
1 | 300 (≈ 1.2 mM) | – | – | Cc1c(C)c2c(c(C)c1O)CCC(C)(C(=O)O)O2 (centres undefined) [TROLOX] | 90.8 | 89.2 | 91.8 | 82.1 | 85.5 | – | – | – | – | – | – | – | – | – | – | – | –
2 | 2700 (≈ 6.35 mM) | 1880 (≈ 4.42 mM) | 1930 (≈ 4.54 mM) | Cc1cccc(N2C(=O)[C@H]3[C@H](ON4[C@@H]3C(=O)N(C)[C@@]43C[C@H](C)CC[C@H]3C(C)C)C2=O)c1 | 47.7 | 35.3 | 52.4 | 16.1 | 25.8 | 26.8 | 65.8 | 49.9 | 25 | 57.6 | Dose-dependent effect | 38.7 | 57.5 | 43.6 | 39 | 73.8 | –
3 | 1400 (≈ 4.01 mM) | 1650 (≈ 4.72 mM) | 2160 (≈ 6.18 mM) | CC(C)[C@@H]1CC[C@@H](C)C[C@@]12N(C)C(=O)[C@@H]1[C@H]3C(=O)N(C)C(=O)[C@H]3ON12 | 70.3 | 59.9 | 75.3 | 39.2 | 41.5 | 18.2 | 67.5 | 53.4 | 36.5 | 57.2 | Dose-dependent effect | 43.1 | 55.8 | 49.7 | 47.7 | 64 | –
4 | 2520 (≈ 5.46 mM) | 2920 (≈ 6.33 mM) | 2680 (≈ 5.81 mM) | CC(C)[C@@H]1CC[C@@H](C)C[C@@]12N(C)C(=O)[C@@H]1[C@H]3C(=O)N(c4ccc5ccccc5c4)C(=O)[C@H]3ON12 | 47.9 | 43.6 | 60.1 | 25.4 | 33.2 | 13.8 | 57.4 | 35 | 24.5 | 45.1 | Dose-dependent effect | 27.6 | 39.5 | 36.5 | 29.6 | 50.9 | –
5 | 480 (≈ 1.09 mM) | 1120 (≈ 2.54 mM) | 990 (≈ 2.24 mM) | COc1ccc(N2C(=O)[C@H]3[C@H](ON4[C@@H]3C(=O)N(C)[C@@]43C[C@H](C)CC[C@H]3C(C)C)C2=O)cc1 | 71.5 | 68.9 | 75.1 | 48.9 | 61 | 32.9 | 67.7 | 61.7 | 44.5 | 59.3 | Dose-dependent effect | 48.1 | 65.3 | 55.7 | 50 | 68.2 | MIC [19]: 6250 µg/mL (≈ 14.2 mM); zone of inhibition at 125000 µg/mL [20]: 9.66 mm; zone of inhibition at 125000 µg/mL [21]: 15 mm; MBC [22]: 50000 µg/mL (≈ 113 mM); zone of inhibition at 125000 µg/mL [23]: 11.3 mm; diameter of the inhibition zone (DIZ) [24]: inactive; MIC [25]: 6250 µg/mL (≈ 14.2 mM); zone of inhibition at 125000 µg/mL [26]: 11 mm; zone of inhibition at 125000 µg/mL [27]: 10 mm; zone of inhibition at 125000 µg/mL [28]: 12.7 mm; MBC [29]: 50000 µg/mL (≈ 113 mM); MIC [30]: 12500 µg/mL (≈ 28.3 mM); MBC [31]: 50000 µg/mL (≈ 113 mM); MBC [32]: 50000 µg/mL (≈ 113 mM); MIC [33]: 12500 µg/mL (≈ 28.3 mM); MIC [34]: 3120 µg/mL (≈ 7.07 mM); zone of inhibition at 125000 µg/mL [35]: 9 mm; MIC [36]: 6250 µg/mL (≈ 14.2 mM); MIC [37]: 12500 µg/mL (≈ 28.3 mM)
6 | – | 720 (≈ 3.27 mM) | 930 (≈ 4.22 mM) | Cc1cc(C(C)(C)C)c(O)c(C(C)(C)C)c1 [BUTYLATED HYDROXYTOLUENE] | – | – | – | – | – | 33.8 | 79.2 | 84.8 | 39.6 | 75.1 | – | 69.2 | 85.2 | 65.9 | 52.3 | 85.8 | –
7 | 2250 (≈ 5.47 mM) | 900 (≈ 2.19 mM) | 2310 (≈ 5.61 mM) | CC(C)[C@@H]1CC[C@@H](C)C[C@@]12N(C)C(=O)[C@@H]1[C@H]3C(=O)N(c4ccccc4)C(=O)[C@H]3ON12 | 58.6 | 41 | 73.5 | 14.7 | 29.7 | 21.6 | 58.9 | 74.2 | 28.7 | 53.1 | Dose-dependent effect | 54.9 | 76.2 | 48.2 | 35.4 | 80.7 | –
8 | 2000 (≈ 4.48 mM) | 2150 (≈ 4.82 mM) | 710 (≈ 1.59 mM) | CC(C)[C@@H]1CC[C@@H](C)C[C@@]12N(C)C(=O)[C@@H]1[C@H]3C(=O)N(c4ccc(Cl)cc4)C(=O)[C@H]3ON12 | 60.1 | 49.4 | 74 | 29.7 | 39.9 | 18.1 | 73.2 | 48.2 | 47.5 | 61.3 | Dose-dependent effect | 31.7 | 53.1 | 56.4 | 53.7 | 47.2 to 63.9 | –
9 | 1500 (≈ 4.47 mM) | 1550 (≈ 4.62 mM) | – | CC(C)[C@@H]1CC[C@@H](C)C[C@@]12N(C)C(=O)[C@@H]1[C@H]3C(=O)NC(=O)[C@H]3ON12 | 70 | 57.2 | 72 | 23.5 | 42.6 | 21.6 | 47.2 | 58.7 | 25.9 | 38 | Dose-dependent effect | 39.3 | 67.2 | 37.1 | 35.6 | 80.3 | –
